Measured values as given in patent US10144715B2, “Piperazine derivatives as liver X receptor modulators” (priority 2014, dated 2018).
pEC50, pKi: −log10 of the molar value. Read-outs that look alike come from different tables or passages of the source.

Experiments:
[1] = target: LXR α LBD protein (Homo sapiens (Human), UniProt Q13133); test: LXR α radioligand binding assay (SPA, competition with [3H]TO901317); conditions: read-out: LXRα Binding Ki
[2] = target: LXR β LBD protein (Homo sapiens (Human), UniProt P55055); test: biochemical; format: binding
[3] = target: Gal4 DNA binding domain fused to the LBD of LXRα in HEK293 cells (Homo sapiens (Human), UniProt Q13133); test: LXR luciferase transcriptional reporter gene assay, agonist mode, LXRα; format: cell-based; conditions: for pEC50: read-out: Cell LXRα EC50
[4] = target: Gal4 DNA binding domain fused to the LBD of LXRβ in HEK293 cells (Homo sapiens (Human), UniProt P55055); test: cell-based
[5] = agonist mode, read-out: Cell LXRβ EC50
[6] = Biological Test Example 1, read-out: LXRβ Binding Ki
[7] = Biological Test Example 2, agonist mode
[8] = Biological Test Example 2, agonist mode, read-out: Cell LXRβ EC50

Chain of LXR α LBD protein (Q13133 209-447): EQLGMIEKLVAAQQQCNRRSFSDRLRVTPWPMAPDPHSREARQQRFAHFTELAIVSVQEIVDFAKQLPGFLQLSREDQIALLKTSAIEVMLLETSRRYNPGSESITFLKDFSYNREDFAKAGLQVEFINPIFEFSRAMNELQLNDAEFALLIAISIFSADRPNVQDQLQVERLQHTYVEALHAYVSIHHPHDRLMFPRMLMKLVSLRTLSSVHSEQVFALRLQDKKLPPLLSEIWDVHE
Chain of Gal4 DNA binding domain fused to the LBD of LXRα in HEK293 cells (Q13133 209-447): as above
Chain of Gal4 DNA binding domain fused to the LBD of LXRβ in HEK293 cells (P55055 222-460 limits assumed): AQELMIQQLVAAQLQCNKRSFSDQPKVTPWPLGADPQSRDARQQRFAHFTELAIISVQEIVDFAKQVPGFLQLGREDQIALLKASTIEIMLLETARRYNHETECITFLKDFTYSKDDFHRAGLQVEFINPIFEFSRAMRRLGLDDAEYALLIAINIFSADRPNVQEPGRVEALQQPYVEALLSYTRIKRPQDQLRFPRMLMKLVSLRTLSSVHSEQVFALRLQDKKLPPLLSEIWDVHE
Chain of LXR β LBD protein (P55055 222-460 limits assumed): as above

SMILES	pKi [1]	pKi [2]	Cell LXRα efficacy [3]	pEC50 ([3]; agonist mode)	pEC50 [4]	Cell LXRβ efficacy ([4]; agonist mode)	pKi ([2]; read-out: LXRβ Binding Ki)	pEC50 [3]	pEC50 [4, 5]	pKi [2, 6]	Cell LXRβ efficacy [4, 7]	pEC50 [4, 8]	pEC50 [3, 7]	Cell LXRβ efficacy [4]
CO[C@@H](C)[C@@H]1CN(c2ccc(CO)c(S(C)(=O)=O)c2)CCN1c1ncc(CO)c(C(F)(F)F)n1 (single isomer, unassigned) [11-4]	5.72	6.80	3106 (30) %	5.51	6.46	347 (24) %	–	–	–	–	–	–	–	–
CO[C@H](C)[C@@H]1CN(c2ccc(CO)c(S(C)(=O)=O)c2)CCN1c1ncc(CO)c(C(F)(F)F)n1 (single isomer, unassigned) [11-5]	< 5.48	6.38	4667 (21) %	5.33	6.44	363 (16) %	–	–	–	–	–	–	–	–
CC(C)[C@@H]1CN(c2ccc(C#N)c(S(C)(=O)=O)c2)CCN1c1ncc([C@@H](C)O)c(C(F)(F)F)n1 (single isomer, unassigned) [12-4]	5.84	–	4457 (58) %	–	6.19	652 (50) %	6.95	5.35	–	–	–	–	–	–
CC(C)[C@@H]1CN(c2ccc(C#N)c(S(C)(=O)=O)c2)CCN1c1ncc([C@H](C)O)c(C(F)(F)F)n1 (single isomer, unassigned) [12-5]	5.93	–	1481 (22) %	–	6.28	521 (40) %	7.10	5.83	–	–	–	–	–	–
CC[C@H](O)c1cnc(N2CCN(c3ccc(F)c(S(C)(=O)=O)c3)C[C@H]2C(C)C)nc1C(F)(F)F (single isomer, unassigned) [12-6]	6.58	–	2429 (43) %	5.61	6.54	289 (29) %	7.66	–	–	–	–	–	–	–
C[C@](O)(c1ccc(CN2CCN(c3cccc(S(C)(=O)=O)c3)C[C@@H]2c2ccccc2)cc1)C(F)(F)F (single isomer, unassigned) [46-28]	5.44	6.30	4974 (24) %	–	5.72	1885 (16) %	–	5.30	–	–	–	–	–	–
C[C@@](O)(c1ccc(CN2CCN(c3cccc(S(C)(=O)=O)c3)C[C@H]2c2ccccc2)cc1)C(F)(F)F (single isomer, unassigned) [46-30]	5.78	6.67	1787 (28) %	–	6.27	532 (12) %	–	5.75	–	–	–	–	–	–
CS(=O)(=O)c1cccc(N2CCN(C[C@H]3CC[C@@](C)(O)CC3)[C@H](c3ccccc3)C2)c1 (single isomer, unassigned) [48-6]	4.51	–	–	–	–	–	< 5.60	< 4.70	< 4.70	–	–	–	–	–
NS(=O)(=O)c1cccc(N2CCN(C[C@H]3CC[C@H](C(F)F)CC3)[C@H](c3ccccc3)C2)c1 (single isomer, unassigned) [48-20]	5.33	–	–	–	–	6%	5.81	< 4.70	5.64	–	–	–	–	–
NS(=O)(=O)c1cccc(N2CCN(C[C@H]3CC[C@H](C(F)F)CC3)[C@@H](c3ccccc3)C2)c1 (single isomer, unassigned) [48-21]	6.29	–	2703 (20) %	–	–	10%	6.76	5.57	6.03	–	–	–	–	–
NS(=O)(=O)c1cccc(N2CCN(C[C@H]3CC[C@@H](C(F)F)CC3)[C@H](c3ccccc3)C2)c1 (single isomer, unassigned) [48-22]	5.82	–	9061 (8) %	–	–	8%	6.04	5.04	5.92	–	–	–	–	–
CS(=O)(=O)c1cc(N2CCN(C[C@H]3CC[C@H](C(F)(F)F)CC3)[C@H](c3ccccc3)C2)ccc1CO (single isomer, unassigned) [48-44]	4.97	–	11556 (50) %	–	–	34%	6.01	4.94	5.51	–	–	–	–	–
CS(=O)(=O)c1cc(N2CCN(C[C@H]3CC[C@H](C(F)(F)F)CC3)[C@@H](c3ccccc3)C2)ccc1CO (single isomer, unassigned) [48-45]	7.12	–	431 (65) %	–	–	–	–	6.37	–	7.68	33%	6.85	–	–
CS(=O)(=O)c1cccc(N2CCN(CC3(F)CCN(CC(F)(F)F)CC3)[C@@H](c3ccccc3)C2)c1 (single isomer, unassigned) [48-53]	5.66	–	2169 (43) %	–	6.15	–	–	–	–	6.59	711 (20) %	–	5.66	–
COC(=O)c1cc(CN2CCN(c3cccc(S(C)(=O)=O)c3)CC2c2ccccc2)ccc1C(F)(F)F (centres unmarked) [46-36, methyl 5-((4-(3-(methylsulfonyl)phenyl)-2-phenylpiperazin-1-yl)methyl)-2-(trifluoromethyl)benzoate]	–	–	11251 (20) %	4.95	5.32	4759 (14) %	6.61	–	–	–	–	–	–	–
CS(=O)(=O)c1cccc(N2CCN(Cc3ccc(C(F)(F)F)c(Br)c3)C(c3ccccc3)C2)c1 (centres unmarked) [46-37, 1-(3-bromo-4-(trifluoromethyl)benzyl)-4-(3-(methylsulfonyl)phenyl)-2-phenylpiperazine]	–	–	3451 (52) %	5.46	5.92	1194 (55) %	7.52	–	–	–	–	–	–	–
CS(=O)(=O)c1cccc(N2CCN(CC3CCN(CC(F)(F)F)CC3)[C@H](c3ccccc3Cl)C2)c1 [48-56, (R)-2-(2-chlorophenyl)-4-(3-(methylsulfonyl)phenyl)-1-((1-(2,2,2-trifluoroethyl)piperidin-4-yl)methyl)piperazine]	–	–	–	–	5.40	–	5.78	< 4.70	–	–	–	–	–	4014 (16) %
CS(=O)(=O)c1cccc(N2CCN(CC3(F)CCN(CC(F)(F)F)CC3)[C@@H](c3ccc(F)cc3)C2)c1 [48-57, (S)-1-((4-fluoro-1-(2,2,2-trifluoroethyl)piperidin-4-yl)methyl)-2-(4-fluorophenyl)-4-(3-(methylsulfonyl)phenyl)piperazine]	–	–	4500 (37) %	–	5.90	–	–	–	–	6.31	1272 (13) %	–	5.35	–
CS(=O)(=O)c1cccc(N2CCN(C[C@H]3CC[C@]4(CC3)CC4(F)F)[C@H](c3ccccc3)C2)c1 [48-72, (R)-1-(((3R,6r)-1,1-difluorospiro[2.5]octan-6-yl)methyl)-4-(3-(methylsulfonyl)phenyl)-2-phenylpiperazine]	–	–	7222 (11) %	–	–	–	–	5.14	–	6.08	31%	5.54	–	–
CS(=O)(=O)c1cccc(N2CCN(C[C@@H]3C[C@H]4CC[C@@H](C3)N4CC(F)(F)F)[C@H](c3ccccc3)C2)c1 [48-75, (1R,3s,5S)-3-(((R)-4-(3-(methylsulfonyl)phenyl)-2-phenylpiperazin-1-yl)methyl)-8-(2,2,2-trifluoroethyl)-8-azabicyclo[3.2.1]octane]	–	–	–	–	–	–	–	< 4.70	–	6.03	21%	5.62	–	–
CS(=O)(=O)c1cccc(N2CCN(C[C@@H]3C[C@H]4CC[C@@H](C3)N4CC(F)(F)F)[C@@H](c3ccccc3)C2)c1 [48-76, (1R,3s,5S)-3-(((S)-4-(3-(methylsulfonyl)phenyl)-2-phenylpiperazin-1-yl)methyl)-8-(2,2,2-trifluoroethyl)-8-azabicyclo[3.2.1]octane]	–	–	1394 (54) %	–	–	–	–	5.86	–	7.17	27%	6.43	–	–
Cc1nc(N2CCN(c3ccc(F)c(S(C)(=O)=O)c3)C[C@H]2C(C)C)ncc1C(F)(F)F [Cpd No 37-1, (R)-2-(4-(4-fluoro-3-(methylsulfonyl)phenyl)-2-isopropylpiperazin-1-yl)-4-methyl-5-(trifluoromethyl)pyrimidine]	–	–	262 (91) %	–	7.39	–	8.52	6.58	–	–	–	–	–	41 (81) %
